# Laboratory results published in patent publication US9611500B2, “Method for detecting the presence of the viable cells in an endodontic sample” (KINGS COLLEGE LONDON, priority 2011, dated 2017).
# Marks after values point to notes of the source that are not given here.
# System: Multispecies mature biofilm from clinical isolates (Actinomyces radicidentis, Enterococcus faecalis, Propionibacterium acnes, Streptococcus epidermidis …)
# Test: Viable post-experimental counts of multi-species biofilms on root halves after irrigation
# Assay type: cell-based
# Conditions: 1% NaOCl solution irrigation (5 ml) of root canals of extracted teeth with two-week biofilm; paper point sampling; FAA plates incubated anaerobically 7 days; triplicates
# From the text: Twenty freshly extracted, single rooted teeth were obtained under ethical Approval (South East London ethical approval 10/H0804/056). Each tooth had the crown removed to obtain 15 mm long specimens, using a 0.3 mm thickness diamond wafering blade (Extec, Enfield, Conn., USA) on a 11-1180 Isomet low speed saw (Buehler, Düsseldorf, Germany). Root canal patency was confirmed using an ISO 10 K-file. Canals were instrumented with Gates Glidden (nr. 2-4) for coronal flaring followed by ProTaper F3 instrumentation and apical instrumentation with an ISO 45 K-file 1 mm short of the working length. Irrigation throughout the instrumentation was undertaken with sterile saline. […]
# Multispecies mature biofilm from clinical isolates, identified through sequencing (Actinomyces radicidentis, Enterococcus faecalis, Propionibacterium acnes, Streptococcus epidermidis, Streptococcus oxalis) were grown in 24 multiwell plates for two weeks on root halves using a modification of the established 5-day biofilm protocol (Gmür & Guggenheim 1983). […] The turbidity was adjusted with fresh mFUM to OD at 540 nm (Labsystems iEMS Reader MF) to 0.5. […]
# After each root had been subjected to its respective irrigation protocol and imaging steps, the root halves were aseptically placed in a 9 cm petri dish (SLS, East Riding of Yorkshire, UK). […] After the incubation, the numbers of colonies on FAA plates were counted. […]
smiles,measurement,value
OCl [Sodium hypochlorite],Microbial counts expressed as log10 (Mean ± SE) after anaerobic growth,0.51* Log10
